Patent US4258034A, “Lactobionic acid poly(H-sulfate) and salts thereof useful as complement inhibitors” (American Cyanamid Company, priority 1979, dated 1981)
Structures can show the parent of a compound that is named as a salt.

Columns and labels:
Conditions in all cases: activity in wells, twofold serial dilution assay; higher well number indicates higher activity
activated human C1 = assay: Test Code 026 (C1 inhibitor); format: biochemical
Text: (§1) An active inhibitor protects C2 from C1 and C4; (ii) Test Code 035 (C3-C9 inhibitor)--This test determines the ability of the late components of human complement (C3-C9) to lyse EAC 142 in the presence of appropriate dilutions of the test compound. An active inhibitor protects EAC 142 from lysis by human C3-C9; (iii) Test Code 036 (C-Shunt inhibitor)--In this test human erythrocytes rendered fragile are lysed in autologous serum via the shunt pathway activated by cobra venom factor in the presence of appropriate dilutions of the test compound. Inhibition of the shunt pathway results in failure of lysis; (iv) Forssman Vasculitis Test--Here, the well known complement dependent lesion, Forssman vasculitis, is produced in guinea pigs by intradermal injection of rabbit anti-Forssman antiserum. […]

[1] = tested on: late components of human complement (C3-C9); assay: Test Code 035 (C3-C9 inhibitor), lysis of EAC 142; format: biochemical
Text: as §1

shunt pathway = assay: Test Code 036 (C-Shunt inhibitor), lysis of fragile human erythrocytes in autologous serum, cobra venom factor activated; format: cell-based
Text: as §1

Row | Structure (SMILES) | C1 026 Wells (activated human C1) [Wells] | C-Late 035 Wells [1] [Wells] | Shunt Inhibition 036 Wells (shunt pathway) [Wells]
1 | O=C(O)[C@H](OS(=O)(=O)O)[C@@H](OS(=O)(=O)O)[C@H](O[C@@H]1O[C@H](COS(=O)(=O)O)[C@H](OS(=O)(=O)O)[C@H](OS(=O)(=O)O)[C@H]1OS(=O)(=O)O)[C@@H](COS(=O)(=O)O)OS(=O)(=O)O [Lactobionic acid, octakis (H-sulfate) nonasodium salt] [Lactobionic acid, octakis (H-sulfate), nonasodium salt] | 8 | 2 | 5
2 | O=C(O)[C@H](OS(=O)(=O)O)[C@@H](OS(=O)(=O)O)[C@H](O[C@@H]1O[C@H](COS(=O)(=O)O)[C@H](OS(=O)(=O)O)[C@H](OS(=O)(=O)O)[C@H]1OS(=O)(=O)O)[C@@H](COS(=O)(=O)O)OS(=O)(=O)O [Lactobionic acid, octakis (H-sulfate), nonatrimethylamine sa] [Lactobionic acid, octakis (H-sulfate), nonatrimethylamine salt] | 8 | 2 | 4
